Like-named read-outs stand apart in the source and are kept apart here. Where a SMILES comes first, the peptide text is derived from it. Bridges are numbered along the chain shown (N, C = ends). Roman numbers before positions name the chains, in order. Where no end group is shown, it is not given here.
Key:
[1] = test system: C. guilliermondi CCARM 14019; assay type: cell-based
Protocol: To determine the candidacidal activity of the peptides, we used Candida strains obtained from the Culture collection of antimicrobial resistant microbes at Seoul Women’s University in Korea. These included three Candida albicans (CCARM 14020, 14021, 14022), Candida guillermondi and Candida tropicalis. In addition, Candida albicans SC5413 was kindly provided by Dr Jeong-Yoon Kim at the Department of Microbiology & Molecular Biology, Chungnam University, Korea. Yeast were cultured overnight at 30°C in 10 ml of yeast extract-peptone-dextrose (YPD) broth (Qbiogene), then diluted in 10 ml of YPD broth to OD600 = 0.2 and grown for an additional 4 h with shaking at 30°C until OD600 = 0.8 in order to obtain mid-log phase cultures. The peptides (Hst 5, P113, HHP1, HHP2, PH1, PH2, di-PH1, di-PH2, WP1, di-WP2, di-15Hc and di-18Hc) in this study were synthesized by using standard solid-phase synthesis protocols and were purified by reversed-phase high-performance liquid chromatography at Anygen Inc. (Korea). FITC-labeled peptides (F-Hst5, F-P113, F-HHP1, F-di-PH2, F-di-WP2 and F-di-18Hc) were also synthesized by 6-aminohexnoic acid linker at Anygen (Korea) for confocal experiments.
The candidacidal activities of the peptides were tested by using standard microdilution plate assays, radial diffusion assays and broth dilution assay slightly modified from the procedure recommended by the National Committee for Clinical Laboratory Standards. For the candidacidal assays, C. albicans cells were grown in YPD medium and washed twice with 10 mM sodium phosphate buffer (NaPB; Na2HPO4, NaH2PO4, pH 7.4). The cells (1 x 10^6) were then mixed with different concentrations of peptides and incubated at 30°C with constant shaking for 60 min. For energy depletion experiments, cells were pre-incubated with 10 mM NaPB containing 5 mM NaN3 at 30°C for 60 min before the addition of peptides. The cell suspensions were diluted in 10 mM NaPB and aliquots of 500 cells were spread onto YPD agar plates then incubated for 24 h at 30°C to visualize the surviving colonies. Cell survival was expressed as a percentage of that for the control, and the loss of viability was calculated as [1 x (number of colonies from peptide-treated cells/number of colonies from control cells)] x 100. Candidacidal assays were performed in triplicate. For the radial diffusion assay, C. albicans cells were grown in YPD medium overnight and washed twice with 10 mM NaPB. Washed yeast-phase C. albicans cells (1 x 10^6 CFU) were trapped in thin underlay gels containing 9 mM sodium phosphate, 1 mM sodium citrate buffer, 1% (wt/vol) agarose (A6013; Sigma), and 0.3 mg of Sabouraud dextrose broth (Difco)/ml. After incubation at 37°C for 3 h, a 10 ml overlay gel of 1% agarose and 6% Sabouraud dextrose broth was poured on the underlay gel and then the plates were incubated overnight at 37°C. The clear-zone diameters were measured to the nearest 0.1 mm and graphed against the peptide concentration. Zone diameters were expressed in units (0.1 mm = 1 unit). For the broth dilution assay, the Candida strains were cultured in LYM broth for 18 h at 30°C. The numbers of yeasts were counted using a hemocytometer. Stock peptide solutions were prepared to a concentration of 320 μg/ml in distilled water, and were then serially diluted twofold, to 5 μg/ml. 100 μl aliquots of the diluted culture media containing candida cells (1 x 10^3) were dispensed into the wells of 96-well polypropylene microtiter plates (Costar 3879, Corning, NY), to which peptide solution (11 μl) was then added. In the experiments conducted to assess the candidacidal activity of peptides in the presence of salt, we used LYM supplemented with 150 mM NaCl for the culture medium, which was mixed with the peptide solution. The antifungal activities were evaluated after 24 h of incubation at 30°C by the observation of visible turbidity the wells. […]

[2] = test system: Candida albicans; assay type: cell-based; details: for reduction of cell viability: 1 μg/ml peptide, in 1 hour, colony count assay
Protocol: The candidacidal activities of the peptides were tested by using standard microdilution plate assays, radial diffusion assays and broth dilution assay slightly modified from the procedure recommended by the National Committee for Clinical Laboratory Standards. For the candidacidal assays, C. albicans cells were grown in YPD medium and washed twice with 10 mM sodium phosphate buffer (NaPB; Na2HPO4, NaH2PO4, pH 7.4). The cells (1 x 10^6) were then mixed with different concentrations of peptides and incubated at 30°C with constant shaking for 60 min. For energy depletion experiments, cells were pre-incubated with 10 mM NaPB containing 5 mM NaN3 at 30°C for 60 min before the addition of peptides. The cell suspensions were diluted in 10 mM NaPB and aliquots of 500 cells were spread onto YPD agar plates then incubated for 24 h at 30°C to visualize the surviving colonies. Cell survival was expressed as a percentage of that for the control, and the loss of viability was calculated as [1 x (number of colonies from peptide-treated cells/number of colonies from control cells)] x 100. Candidacidal assays were performed in triplicate. For the radial diffusion assay, C. albicans cells were grown in YPD medium overnight and washed twice with 10 mM NaPB. Washed yeast-phase C. albicans cells (1 x 10^6 CFU) were trapped in thin underlay gels containing 9 mM sodium phosphate, 1 mM sodium citrate buffer, 1% (wt/vol) agarose (A6013; Sigma), and 0.3 mg of Sabouraud dextrose broth (Difco)/ml. After incubation at 37°C for 3 h, a 10 ml overlay gel of 1% agarose and 6% Sabouraud dextrose broth was poured on the underlay gel and then the plates were incubated overnight at 37°C. The clear-zone diameters were measured to the nearest 0.1 mm and graphed against the peptide concentration. Zone diameters were expressed in units (0.1 mm = 1 unit). For the broth dilution assay, the Candida strains were cultured in LYM broth for 18 h at 30°C. The numbers of yeasts were counted using a hemocytometer. […] The antifungal activities were evaluated after 24 h of incubation at 30°C by the observation of visible turbidity the wells. The MIC values were expressed as intervals (a–b), with a representing the highest tested concentration at which microbes continue to grow, and b representing the lowest concentration at which growth inhibition could be detected.
Fig 4 Killing kinetics of Hst5, P113, di-18Hc, hybrid peptides against Candida albicans. Killing kinetics of peptides against C. albicans was measured by colony count assay. Candida cells were treated with a different concentration of peptides at a determined time. […] Killing percent was calculated with the following equation: Killing % = (number of control cell—number of treated cell)/control cell × 100.

[3] = NaCl 150 mM, LYM supplemented with 150 mM NaCl, 24 h at 30°C

Molecule	MICs ([1]; CCARM 14019, 24 h) [µg/mL]	MICs [1, 3]	reduction of cell viability [2] [%]	killing kinetics (time) ([2]; membrane-attacking peptide with fast kinetics) [s]
C[C@H](NC(=O)[C@H](Cc1c[nH]cn1)NC(=O)[C@H](CO)NC(=O)[C@@H](N)CC(=O)O)C(=O)N[C@@H](CCCCN)C(=O)N[C@@H](CCCNC(=N)N)C(=O)N[C@@H](Cc1c[nH]cn1)C(=O)N[C@@H](Cc1c[nH]cn1)C(=O)NCC(=O)N[C@@H](Cc1ccc(O)cc1)C(=O)N[C@@H](CCCCN)C(=O)N[C@@H](CCCNC(=N)N)C(=O)N[C@@H](CCCCN)C(=O)N[C@@H](Cc1ccccc1)C(=O)N[C@@H](Cc1c[nH]cn1)C(=O)N[C@@H](CCC(=O)O)C(=O)N[C@@H](CCCCN)C(=O)N[C@@H](Cc1c[nH]cn1)C(=O)N[C@@H](Cc1c[nH]cn1)C(=O)N[C@@H](CO)C(=O)N[C@@H](Cc1c[nH]cn1)C(=O)N[C@@H](CCCNC(=N)N)C(=O)NCC(=O)N[C@@H](Cc1ccc(O)cc1)C(=O)O [Hst 5, Histatin 5]	2 to 4	32< μg/ml		
CC(C)C[C@H](NC(=O)CNC(=O)[C@H](Cc1c[nH]cn1)NC(=O)[C@H](Cc1c[nH]cn1)NC(=O)[C@H](CC(C)C)NC(=O)[C@H](CC(C)C)NC(=O)[C@H](C)NC(=O)[C@H](CC(N)=O)NC(=O)[C@H](CC(C)C)NC(=O)[C@@H](N)Cc1c[nH]c2ccccc12)C(=O)N[C@@H](CC(N)=O)C(=O)N[C@@H](CSSC[C@H](NC(=O)[C@H](CC(N)=O)NC(=O)[C@H](CC(C)C)NC(=O)CNC(=O)[C@H](Cc1c[nH]cn1)NC(=O)[C@H](Cc1c[nH]cn1)NC(=O)[C@H](CC(C)C)NC(=O)[C@H](CC(C)C)NC(=O)[C@H](C)NC(=O)[C@H](CC(N)=O)NC(=O)[C@H](CC(C)C)NC(=O)[C@@H](N)Cc1c[nH]c2ccccc12)C(=O)N[C@@H](C)C(=O)N[C@@H](CCCCN)C(=O)NCC(=O)N[C@H](C(=O)N[C@@H](CC(C)C)C(=O)N[C@@H](C)C(N)=O)C(C)C)C(=O)N[C@@H](C)C(=O)N[C@@H](CCCCN)C(=O)NCC(=O)N[C@H](C(=O)N[C@@H](CC(C)C)C(=O)N[C@@H](C)C(N)=O)C(C)C [di-18Hc, reference compound] (I: H-WLNALLHHGLNCAKGVLA-NH2 / II: H-WLNALLHHGLNCAKGVLA-NH2; disulfide I:12-II:12 (inferred); N-terminus assumed)	4 to 8		99	≤ 30
CC(C)C[C@H](NC(=O)CNC(=O)[C@H](Cc1c[nH]cn1)NC(=O)[C@H](Cc1c[nH]cn1)NC(=O)[C@H](CCCNC(=N)N)NC(=O)[C@H](CCCCN)NC(=O)[C@H](C)N)C(=O)N[C@@H](CC(N)=O)C(=O)N[C@@H](CSSC[C@H](NC(=O)[C@H](CC(N)=O)NC(=O)[C@H](CC(C)C)NC(=O)CNC(=O)[C@H](Cc1c[nH]cn1)NC(=O)[C@H](Cc1c[nH]cn1)NC(=O)[C@H](CCCNC(=N)N)NC(=O)[C@H](CCCCN)NC(=O)[C@H](C)N)C(=O)N[C@@H](C)C(=O)N[C@@H](CCCCN)C(=O)N[C@@H](Cc1ccccc1)C(=O)N[C@@H](Cc1c[nH]cn1)C(N)=O)C(=O)N[C@@H](C)C(=O)N[C@@H](CCCCN)C(=O)N[C@@H](Cc1ccccc1)C(=O)N[C@@H](Cc1c[nH]cn1)C(N)=O [di-PH2] (I: H-AKRHHGLNCAKFH-NH2 / II: H-AKRHHGLNCAKFH-NH2; disulfide I:9-II:9 (inferred); N-terminus assumed)			99	
CC(C)C[C@H](NC(=O)[C@@H](N)Cc1c[nH]c2ccccc12)C(=O)N[C@@H](CC(N)=O)C(=O)N[C@@H](C)C(=O)N[C@@H](CCCCN)C(=O)N[C@@H](CCCNC(=N)N)C(=O)N[C@@H](Cc1c[nH]cn1)C(=O)N[C@@H](Cc1c[nH]cn1)C(=O)NCC(=O)N[C@@H](Cc1ccc(O)cc1)C(=O)N[C@@H](CCCCN)C(=O)N[C@@H](CSSC[C@H](NC(=O)[C@H](CCCCN)NC(=O)[C@H](Cc1ccc(O)cc1)NC(=O)CNC(=O)[C@H](Cc1c[nH]cn1)NC(=O)[C@H](Cc1c[nH]cn1)NC(=O)[C@H](CCCNC(=N)N)NC(=O)[C@H](CCCCN)NC(=O)[C@H](C)NC(=O)[C@H](CC(N)=O)NC(=O)[C@H](CC(C)C)NC(=O)[C@@H](N)Cc1c[nH]c2ccccc12)C(=O)N[C@@H](CCCCN)C(=O)N[C@@H](Cc1ccccc1)C(=O)N[C@@H](Cc1c[nH]cn1)C(N)=O)C(=O)N[C@@H](CCCCN)C(=O)N[C@@H](Cc1ccccc1)C(=O)N[C@@H](Cc1c[nH]cn1)C(N)=O [di-WP2] (I: H-WLNAKRHHGYKCKFH-NH2 / II: H-WLNAKRHHGYKCKFH-NH2; disulfide I:12-II:12 (inferred); N-terminus assumed)	4 to 8		99	
AKRHHGYKRKFH-NH2 [P113]	0.5 to 1	32< μg/ml		
